{"source": "patent US20090182054A1", "about": "“Topical compositions containing solubilized dicarboxylic acids” (priority 2008, published 2009)", "origin": "cited, not measured here", "key": {"[1]": {"test_system": "inflammatory papule lesions and erythema", "conditions": "topical application"}, "[2]": {"conditions": "water, 25 deg C"}}}
{"smiles": "O=C(O)CCCCCCCC(=O)O", "note": "[azelaic acid, Azelaic acid]", "values": [{"measurement": "inflammatory papule lesions and erythema", "setting": "[1]", "value": "significantly reduce"}, {"measurement": "solubility", "setting": "[2]", "value": "0.24 gram per 100 gram of water"}]}
